Among the data in article PMC3876124, “Identification and Biochemical Characterization of Protein Phosphatase 5 from the Cantharidin-Producing Blister Beetle, Epicauta chinensis” (International Journal of Molecular Sciences, 2013) are IC50 values, retold here.

Where two headings read alike, the source gives them in different places.

The assay deals with T1, Protein phosphatase 5 (EcPP5, rEcPP5) (Epicauta chinensis, UniProt W0FW71).
T1 construct: recombinant full ORF (499 aa), N-terminal His6 tag, E. coli expressed
T1 sequence (W0FW71 1-499): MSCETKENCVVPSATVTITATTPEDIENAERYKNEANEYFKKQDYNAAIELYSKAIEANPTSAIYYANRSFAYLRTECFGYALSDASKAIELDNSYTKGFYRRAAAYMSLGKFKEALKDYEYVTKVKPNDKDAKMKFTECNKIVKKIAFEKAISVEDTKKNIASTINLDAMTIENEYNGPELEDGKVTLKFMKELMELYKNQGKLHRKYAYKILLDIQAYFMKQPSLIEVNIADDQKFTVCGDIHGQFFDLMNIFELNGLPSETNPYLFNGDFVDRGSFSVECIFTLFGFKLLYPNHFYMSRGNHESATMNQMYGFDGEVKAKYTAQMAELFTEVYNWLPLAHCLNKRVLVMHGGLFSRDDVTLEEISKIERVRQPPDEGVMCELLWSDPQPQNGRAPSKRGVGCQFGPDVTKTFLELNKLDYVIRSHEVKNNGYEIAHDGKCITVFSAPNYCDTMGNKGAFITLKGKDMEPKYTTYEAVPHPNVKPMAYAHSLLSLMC
The assay can be described thus: pNPP phosphatase assay, dose-response, purified enzyme. It counts as biochemical.

`C[C@@]12C(=O)OC(=O)[C@]1(C)[C@H]1CC[C@@H]2O1` [cantharidin]: it took 3.19 µM to reach half-maximal inhibition (IC50).

With `O=C(O)[C@@H]1[C@H](C(=O)O)[C@H]2CC[C@@H]1O2` [endothall], the IC50 (commonly the concentration that inhibits the measured activity by half) was found to be 28.4 µM.

Consider `O=C1OC(=O)[C@H]2[C@@H]1[C@@H]1CC[C@H]2O1` [norcantharidin], for which, where the note is “read-out: IC50”, the concentration for half-maximal inhibition (IC50) turned out to be 25.7 µM.

`C=C1[C@@H](O)[C@@H]2O[C@]3(CC[C@H](/C=C/[C@@H](C)[C@@H]4CC(C)=C[C@@]5(O[C@H](C[C@@](C)(O)C(=O)O)CC[C@H]5O)O4)O3)CC[C@H]2O[C@@H]1[C@@H](O)C[C@H](C)[C@H]1O[C@@]2(CCCCO2)CC[C@H]1C` [okadaic acid] yielded a concentration for half-maximal inhibition (IC50) of 0.19 µM.
